According to patent US20240262803A1, “COMPOUNDS, COMPOSITIONS AND METHODS OF TREATING DISORDERS” (Chungdu Anticancer Bioscience Ltd, priority 2021, published 2024):
“Also recorded” adds a separate entry of the source. Where two headings read alike, the source gives them in different places.

Legend:
[1] = test system: lung cancer cell line NCI-H23; assay: MTT assay of cellular proliferation, NCI-H23; type: cell-based; conditions: Homo sapiens, read-out: EC50: Concentration that inhibits 50% of proliferation
Procedure, shortened: (§1)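 DMEM/5% FBS, 37 °C, 5% CO2; seed, 15˜24 h to 20˜30% confluence; compound 1 nM–10 μM; MTT 3˜4 h at endpoint; solubilize, OD570; EC50 = 50% growth inhibition.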

[2] = test system: lung cancer cell line A549; assay: MTT assay of cellular proliferation, A549; type: cell-based; conditions: Homo sapiens, read-out: EC50: Concentration that inhibits 50% of proliferation
Procedure, shortened: as §1

[3] = test system: SW480; assay: Minimal effective concentration that elicits polyploidy, SW480; type: cell-based; conditions: Homo sapiens, read-out: MECP: Minimal effective concentration that elicits polyploidy
[4] = test system: breast cancer cell line MDA-MB-231; assay: MTT assay of cellular proliferation, MDA-MB-231; type: cell-based; conditions: Homo sapiens, read-out: EC50: Concentration that inhibits 50% of proliferation
Procedure, shortened: as §1

[5] = test system: liver cancer cell line T2 HCC; assay: MTT assay of cellular proliferation, T2 HCC; type: cell-based; conditions: Mus musculus, read-out: EC50: Concentration that inhibits 50% of proliferation
Procedure, shortened: as §1

[6] = test system: breast cancer cell line MDA-MB-231; assay: Minimal effective concentration that elicits polyploidy, MDA-MB-231; type: cell-based; conditions: Homo sapiens, read-out: MECP: Minimal effective concentration that elicits polyploidy
[7] = test system: lung cancer cell line A549; assay: Minimal effective concentration that elicits polyploidy, A549; type: cell-based; conditions: Homo sapiens, read-out: MECP: Minimal effective concentration that elicits polyploidy
[8] = test system: human colon cancer cell line HCT116; assay: Xenograft assay, HCT116; type: in vivo; conditions: HCT116 subcutaneous xenograft, Nu/Nu mice, oral gavage twice a day for 9 days, FIG. 4
Description: (§2) Xenografts were initiated in immunocompromised (Nu/Nu) mice with the human lung adenocarcinoma cell line NCI-H23 (FIG. 3) and the human colon cancer cell line HCT116 (FIG. 4). Five million cells were injected subcutaneously into each mouse and treatment was initiated when the average tumor volumes reached 150 mm3 (n=5/groups). Tumor-bearing mice were randomized into different groups to receive either vehicle or indicated compounds. The compounds were administered through oral gavage twice a day for 9 days. Day 0 on the x-axis indicates the day that treatment was initiated. For these experiments, all compounds were first dissolved in DMSO and then diluted 1:10 into a mixture containing 50% PEG300 and 49% PBS, 1% Tween 80, pH2.2. 100 ul of drug solution was administered with each dose. Tumor volumes were determined once every three days and are calculated from digital caliper raw data by using the formula: Volume (mm3)=(L×W^2)/2. The value W (Width) is the smaller of two perpendicular tumor axes and the value L (Length) is the larger of two perpendicular axes. Mean tumor volume growth curves and means are calculated for each treatment group.

[9] = test system: gastric cancer cell line NCI-N87; assay: MTT assay of cellular proliferation, NCI-N87; type: cell-based; conditions: Homo sapiens, read-out: EC50: Concentration that inhibits 50% of proliferation
Procedure, shortened: as §1

[10] = test system: cervical cancer cell line Hela; assay: Minimal effective concentration that elicits polyploidy, Hela; type: cell-based; conditions: Homo sapiens, read-out: MECP: Minimal effective concentration that elicits polyploidy
[11] = test system: colon cancer cell line HCT116; assay: MTT assay of cellular proliferation, HCT116; type: cell-based; conditions: Homo sapiens, HCT-116, read-out: EC50: Concentration that inhibits 50% of proliferation
Procedure, shortened: as §1

[12] = test system: human lung adenocarcinoma cell line NCI-H23; assay: Xenograft assay, NCI-H23; type: in vivo; conditions: NCI-H23 subcutaneous xenograft, Nu/Nu mice, oral gavage twice a day for 9 days, FIG. 3
Description: as §2

[13] = test system: gastric cancer cell line NCI-N87; assay: Minimal effective concentration that elicits polyploidy, NCI-N87; type: cell-based; conditions: Homo sapiens, read-out: MECP: Minimal effective concentration that elicits polyploidy
[14] = test system: colon cancer cell line HCT116; assay: Minimal effective concentration that elicits polyploidy, HCT116; type: cell-based; conditions: Homo sapiens, HCT-116, read-out: MECP: Minimal effective concentration that elicits polyploidy
[15] = test system: RPEMYC^H2B-GFP cells; assay: Mechanism-informed phenotypic screening assay (mitotic arrest, polyploidy; GE IN-Cell Analyzer 2000); type: cell-based; conditions: 20 nM to 20 μM, 24, 48 or 72 hours, read-out: Min. Effective conc. for polyploidy (≥5%)
Procedure, shortened: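 Cells expressing Histone 2B-EGFP (RPEMYC^H2B-GFP) were plated 18-24 h before exposure to compounds at 20 nM to 20 μM. At 24, 48 or 72 h, imaging scored mitotic arrest or change in DNA content. Value is the lowest concentration giving polyploid accumulation at 48 h.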

[16] = test system: colon cancer cell line SW460; assay: MTT assay of cellular proliferation, SW460; type: cell-based; conditions: Homo sapiens, SW480; read-out: EC50: Concentration that inhibits 50% of proliferation
Procedure, shortened: as §1

[17] = test system: cervical cancer cell line Hela; assay: MTT assay of cellular proliferation, Hela; type: cell-based; conditions: Homo sapiens, read-out: EC50: Concentration that inhibits 50% of proliferation
Procedure, shortened: as §1

[18] = test system: lung cancer cell line NCI-H23; assay: Minimal effective concentration that elicits polyploidy, NCI-H23; type: cell-based; conditions: Homo sapiens, read-out: MECP: Minimal effective concentration that elicits polyploidy
[19] = test system: liver cancer cell line T2 HCC; assay: Minimal effective concentration that elicits polyploidy, T2 HCC; type: cell-based; conditions: Mus musculus, read-out: MECP: Minimal effective concentration that elicits polyploidy
[20] = test system: RPEMYC^H2B-GFP cells; assay: Mechanism-informed phenotypic screening assay (mitotic arrest, polyploidy; GE IN-Cell Analyzer 2000); type: cell-based; conditions: 20 nM to 20 μM, 24, 48 or 72 hours, read-out: Mitotic Arrest (≥5%)
[21] = test system: lung cancer cell line NCI-H596; assay: Minimal effective concentration that elicits polyploidy, NCI-H596; type: cell-based, human
[22] = test system: lung cancer cell line NCI-H460; assay: Minimal effective concentration that elicits polyploidy, NCI-H460; type: cell-based, human
[23] = test system: lung cancer cell line NCI-H460; assay: MTT assay of cellular proliferation, NCI-H460; type: cell-based; conditions: Homo sapiens, read-out: EC50: Concentration that inhibits 50% of proliferation
Description: (§3) Six lung cancer cell lines (NCI-H23, NCI-H460, NCI-H596, NCI-H2170, Calu-6 and A549), two colon cancer cell lines (HCT116 and SW460), one breast cancer cell line MDA-MB-231, one gastric cancer cell line NCI-N87, one prostate cancer cell line DU145, one cervical cancer cell line Hela, and one glioblastoma cell line T98G were obtained from ATCC. The T2 HCC cell line was derived from a mouse liver cancer model initiated by a transgene of MYC (Reference). All cell lines were cultured in DMEM (Gibco, Cleveland, TN, USA) supplemented with 5% fetal bovine serum (Gibco), penicillin (100 U/mL)-streptomycin (100 μg/mL) (Gibco, Cat. No. 15140-122), 2 mM L-glutamine (Gibco, 200 mM solution, Cat. No. 25030081), and 1 mM sodium pyruvate (Gibco, 100 mM solution, Cat. No. 11360070) at 37° C. in a humidified incubator that was maintained at 5% CO2.
(§4) The MTT assay measures cellular metabolic activity as a proxy for cell viability and involves the conversion of the water-soluble yellow dye MTT [3-(4,5-dimethylthiazol-2-yl)-2,5-diphenyltetrazolium bromide] into an insoluble purple formazan by the action of mitochondrial reductase. Formazan is then solubilized and its concentration is determined by measuring the optical density (OD) value at a wavelength of 570 nm. The value is in proportional to the number of live cells with excellent linearity up to ˜10^6 cells per well. The MTT assay was used to determine the EC50 value, the concentration of a compound that leads to 50% inhibition of cellular proliferation. Briefly, cells were split when growing to the mid-Log phase. Cells in 100 μL of culture medium were seeded into each well of 96-well microplates and cultivated for 15˜24 hours to reach a confluence of 20˜30% and were then exposed to drugs at concentrations ranging from 1 nM to 10 μM. At the endpoint, 20 μL of a MTT stock solution in DMSO (5 mg/mL) was added to each well that contains […] of DMEM. The microplates were left in the cell culture incubator for 3˜4 h before subjected to solubilization and determination of formazan at A570 in a microplate reader (BioTek ELX808iu). […] Therefore, these compounds might hold a broad utility in the treatment of a large variety of human malignancies.

[24] = test system: prostate cancer cell line DU145; assay: Minimal effective concentration that elicits polyploidy, DU145; type: cell-based, human
[25] = test system: glioblastoma cell line T98G; assay: MTT assay of cellular proliferation, T98G; type: cell-based; conditions: Homo sapiens, read-out: EC50: Concentration that inhibits 50% of proliferation
Description: as §3, §4

[26] = test system: lung cancer cell line Calu-6; assay: MTT assay of cellular proliferation, Calu-6; type: cell-based; conditions: Homo sapiens, read-out: EC50: Concentration that inhibits 50% of proliferation
Description: as §3, §4

[27] = test system: lung cancer cell line NCI-H596; assay: MTT assay of cellular proliferation, NCI-H596; type: cell-based; conditions: Homo sapiens, read-out: EC50: Concentration that inhibits 50% of proliferation
Description: as §3, §4

[28] = test system: lung cancer cell line NCI-H2170; assay: Minimal effective concentration that elicits polyploidy, NCI-H2170; type: cell-based, human
[29] = test system: prostate cancer cell line DU145; assay: MTT assay of cellular proliferation, DU145; type: cell-based; conditions: Homo sapiens, DU-145, read-out: EC50: Concentration that inhibits 50% of proliferation
Description: as §3, §4

[30] = test system: lung cancer cell line Calu-6; assay: Minimal effective concentration that elicits polyploidy, Calu-6; type: cell-based, human
[31] = test system: glioblastoma cell line T98G; assay: Minimal effective concentration that elicits polyploidy, T98G; type: cell-based, human
[32] = test system: lung cancer cell line NCI-H2170; assay: MTT assay of cellular proliferation, NCI-H2170; type: cell-based; conditions: Homo sapiens, read-out: EC50: Concentration that inhibits 50% of proliferation
Description: as §3, §4

Structure (SMILES)	EC50 [1] [nM]	EC50 [2] [nM]	minimal effective concentration [3] [µM]	EC50 [4] [nM]	EC50 [5] [nM]	minimal effective concentration [6] [µM]	minimal effective concentration [7] [µM]	tumor growth (tumor volume) [8]	EC50 [9] [nM]	minimal effective concentration [10] [µM]	EC50 [11] [nM]	tumor growth (tumor volume) [12]	minimal effective concentration [13] [µM]	minimal effective concentration [14] [µM]	minimal effective concentration [15] [µM]	EC50 [16] [nM]	EC50 [17] [nM]	minimal effective concentration [18] [µM]	minimal effective concentration [19] [µM]	minimal effective concentration [20] [µM]	also measured
COc1cc(Oc2ncccc2-c2ccncc2)cc(C(F)(F)F)c1 [Compound 9, 2-(3-methoxy-5-(trifluoromethyl)phenoxy)-3,4′-bipyridine]	1 to 1000	1 to 1000	0.001 to 1	1 to 1000	1 to 1000	0.001 to 1	0.001 to 1	suppress the growth; also recorded: suppressing the tumor growth; also recorded: eliciting tumor regression	1 to 1000	0.001 to 1	1 to 1000	suppress the growth; also recorded: suppressing the tumor growth; also recorded: eliciting tumor regression	0.001 to 1	0.001 to 1	1	1 to 1000	1 to 1000	0.001 to 1	0.001 to 1	1	
COc1cc(Oc2ncccc2-c2ccncc2)cc(-n2cccn2)c1 [Compound 10, 2-(3-methoxy-5-(1H-pyrazol-1-yl)phenoxy)-3,4′-bipyridine]	1 to 1000	1 to 1000	0.001 to 1	1 to 1000	1 to 1000	0.001 to 1	0.001 to 1	suppress the growth; also recorded: suppressing the tumor growth	1 to 1000	0.001 to 1	1 to 1000	suppress the growth; also recorded: suppressing the tumor growth	0.001 to 1	0.001 to 1	1	1 to 1000	1 to 1000	0.001 to 1	0.001 to 1	1	
COc1cc(OC)cc(Oc2ncccc2-c2ccnc(N)n2)c1 [Compound 19, 4-(2-(3,5-dimethoxyphenoxy)pyridin-3-yl)pyrimidin-2-amine]	1 to 1000	1000 to 10000		1 to 1000	1 to 1000	0.001 to 1	1 to 10		1 to 1000	0.001 to 1	1 to 1000		0.001 to 1	0.001 to 1	1		1 to 1000	0.001 to 1	0.001 to 1	1	MECP: Minimal effective concentration that elicits polyploidy [21]: A (A: 1 nM < conc. ≤ 1 μM); MECP: Minimal effective concentration that elicits polyploidy [22]: A (A: 1 nM < conc. ≤ 1 μM); EC50 [23]: 1 to 10 µM; MECP: Minimal effective concentration that elicits polyploidy [24]: B (B: 1 μM < conc. ≤ 10 μM); EC50 [25]: 1 to 1000 nM; EC50 [26]: 1 to 1000 nM; EC50 [27]: 1 to 1000 nM; MECP: Minimal effective concentration that elicits polyploidy [28]: A (A: 1 nM < conc. ≤ 1 μM); EC50 [29]: 1 to 10 µM; MECP: Minimal effective concentration that elicits polyploidy [30]: A (A: 1 nM < conc. ≤ 1 μM); MECP: Minimal effective concentration that elicits polyploidy [31]: A (A: 1 nM < conc. ≤ 1 μM); EC50 [32]: 1 to 1000 nM
CNC(=O)c1cc(Oc2ncccc2-c2ccnc(OC)c2)cc(OC(F)(F)F)c1 [Compound 29, 3-((2′-methoxy-[3,4′-bipyridin]-2-yl)oxy)-N-methyl-5-(trifluoromethoxy)benzamide]	1 to 1000	1 to 1000	0.001 to 1	1 to 1000	1 to 1000	0.001 to 1	0.001 to 1	suppress the growth; also recorded: suppressing the tumor growth	1 to 1000	0.001 to 1	1 to 1000	suppress the growth; also recorded: suppressing the tumor growth	0.001 to 1	0.001 to 1	1	1 to 1000	1 to 1000	0.001 to 1	0.001 to 1	1	
